# Patent publication US5605911A, “Use of alpha-2 adrenergic drugs to prevent adverse effects of NMDA receptor hypofunction (NRH)” (priority 1995, dated 1997)
# Entries after “also recorded” stand apart in the source; their conditions may differ. Where two headings read alike, the source gives them in different places.
# What was measured:
# PC/RS cortical neurons = experiment: protection by anti-psychotic drugs against MK-801 (NRH)-induced vacuoles in rats; format: in vivo; conditions: Rattus norvegicus, Cortical neurone, ip
# Description: Control animals received saline or DMSO, but no anti-psychotic drugs. Test animals were injected ip with an antipsychotic drug, listed above and in Table 2. Vacuoles were counted and data were processed as described in Example 1.
# [1] = system: people addicted to cigarettes or opiates; conditions: cited from earlier work
# chick embryo retina = experiment: NMDA excitotoxicity in chick embryo retina segments, protection by MK-801 with or without alpha-2 agonist; format: cell-based; conditions: MK-801 500 nM; for cytopathology in retina incubated in NMDA plus MK-801, without or with α2 agonist: NMDA 40 μM, α2 agonist 500 nM to 100 μM, n=6 per condition
# Description: These experiments were performed using segments of chick embryo retina. This is a widely used model for studying the production and prevention of excitotoxic phenomena, since it is simple and inexpensive. Chick tissue is used, since it tends to provide a better model of adult mammalian tissue than embryonic or juvenile mammalian tissue. Unlike newborn mammals, which are usually blind at birth, baby chicks can see quite well as soon as they emerge from the shell, and the NMDA receptors in chick retinal tissue are fully mature and functional.
# In these tests, NMDA was introduced into the incubation medium in a concentration (40 μM) sufficient to produce a fully developed excitotoxic lesion within 30 min, displaying acute degeneration and necrosis of the majority of neurons in the inner layers of the retina.
# α2 receptors = conditions: in words; cited from earlier work
# [2] = system: pyramidal neurons in layers III and IV of the posterior cingulate (PC) and retrosplenial (RS) cortices; experiment: protection by alpha-2 adrenergic agonists against MK-801 neurotoxicity (vacuolated PC/RS neurons) in rats; conditions: for ED50: Rattus norvegicus, Pyramidal neuron, ip; for relative potency in preventing the neurotoxic reaction: ranking in words among the four α2 agonists
# From the text: For each test agent, at least 17 rats were used and at least four doses tested.
# The rats were sacrificed four hours after treatment, and brain tissue from the PC/RS region was histopathologically evaluated by previously described methods using double-blinded techniques (Olney et al 1991). The number of vacuolated PC and RS neurons were counted on each side of the brain at a rostrocaudal level immediately posterior to where the corpus callosum ceases decussating across the midline (approximately 5.6 mm caudal to Bregma; Paxinos & Watson, The Rat Brain in Stereotaxic Coordinates, 2d Ed., 1986).
# sigma receptors = conditions: sigma and dopamine receptors; cited from earlier work
# cerebral cortex = conditions: cited from earlier work
# [3] = cited from earlier work
# [4] = system: KA and/or QUIS/AMPA classes of EAA receptors; experiment: blocking of MK-801 neurotoxic side effects by non-NMDA antagonist drugs in vivo; conditions: adult rats
# From the text: In addition to the foregoing classes of drugs, the Applicants have also recently discovered that non-NMDA antagonist drugs which can penetrate the BBB and block the KA and/or QUIS/AMPA classes of EAA receptors.
# [5] = system: neurotoxic side effects caused by NMDA antagonists such as PCP or MK-801; conditions: Olney et al 1991, U.S. Pat. No. 5,034,400; cited from earlier work
# [6] = compared to clonidine, cited from earlier work
# [7] = system: alpha-2 adrenergic receptor; conditions: for shift of clonidine blocking curve: preliminary, combined with clonidine (n=4), yohimbine 1 mg/kg ip or rauwolscine 5 mg/kg ip
# Description: The brains were processed and the severity of damage assessed as described in Example 1. Results were analyzed by analysis of variance (ANOVA) where the dose of xylazine was the covariate and the presence of yohimbine served as the classification (treatment) variable. The homogeneity of slopes assumption was tested by determining whether there was a significant interaction between the covariate and the treatment variable.
smiles,measurement,setting,value
Clc1ccc2c(c1)C(N1CCNCC1)=Nc1ccccc1O2 [Amoxapine],ED50,PC/RS cortical neurons,75 mg/kg
Clc1cccc(Cl)c1N=C1NCCN1 [Clonidine],reduction of withdrawal symptoms,[1],help reduce withdrawal symptoms in some recovering addicts
same,"cytopathology in retina incubated in NMDA plus MK-801, without or with α2 agonist",chick embryo retina,no cytopathology
same,affinity/selectivity for α2 over α1 receptors,α2 receptors,activate α2 receptors with higher affinity than they have for α1 receptors
same,ED50,[2]; 4 h,0.044 mg/kg
same,relative potency in preventing the neurotoxic reaction,[2],the most potent
CN1CCN(C2=Nc3cc(Cl)ccc3Nc3ccccc32)CC1 [Clozapine],ED50,"PC/RS cortical neurons; protection against MK-801-induced vacuoles, confidence limits 25th & 75th percentiles in separate column, read-out: ED50",3.2 mg/kg
"Cc1ccccc1NC(=N)Nc1ccccc1C [Di(2-tolyl)guanidine, di(2-tolyl)guanidine]",ED50,PC/RS cortical neurons,22.2 mg/kg
CN1CCN(C2=Nc3cc(F)ccc3Cc3ccccc32)CC1 [Fluperlapine],ED50,PC/RS cortical neurons,2.3 mg/kg
N=C(N)N/N=C/c1c(Cl)cccc1Cl [Guanabenz],affinity/selectivity for α2 over α1 receptors,α2 receptors,activate α2 receptors with higher affinity than they have for α1 receptors
same,ED50,[2]; 4 h,0.21 mg/kg
same,relative potency in preventing the neurotoxic reaction,[2],intermediate
O=C(CCCN1CCC(O)(c2ccc(Cl)cc2)CC1)c1ccc(F)cc1 [Haloperidol],ED50,PC/RS cortical neurons,5.1 mg/kg
same,receptor selectivity,sigma receptors,interact with both dopamine receptors and sigma receptors
CNC1(c2ccccc2Cl)CCCCC1=O (centres unmarked) [Ketamine],pathomorphological changes in brain,"cerebral cortex; rat, in vivo",cause pathomorphological changes in the cerebral cortex of adult rats
same,duration of action,"[3]; ketamine, human anesthesia",about 15 minutes
CN1CCN(C2=Nc3ccccc3Oc3ccc(Cl)cc32)CC1 [Loxapine],ED50,PC/RS cortical neurons,23.6 mg/kg
same,receptor selectivity,sigma receptors,interact with both dopamine receptors and sigma receptors
"C[C@]12N[C@H](Cc3ccccc31)c1ccccc12 [MK-801, (+)-5-methyl-10,11-dihydro-5H-di[a,d]-cyclohepten-5,10-imine]",protection against excitotoxic damage,chick embryo retina; regardless of α2 agonist,completely protected against excitotoxic damage
same,"cytopathology in retina incubated in NMDA plus MK-801, without or with α2 agonist",chick embryo retina,no cytopathology
same,mean number of vacuolated neurons per section,"[2]; MK-801 0.5 mg/kg sc plus vehicle, 4 h, SEM, n=26",223±10.5 vacuolated neurons per section
same,neurotoxic reaction to MK-801,"[2]; all control animals, MK-801 0.5 mg/kg sc",All control animals developed a neurotoxic reaction
same,duration of action,[3]; in words,measured in days
"NS(=O)(=O)c1cccc2c1c([N+](=O)[O-])cc1nc(O)c(O)nc12 [NBQX, 2,3-dihydroxy-6-nitro-7-sulfamoylbenzo(F)quinoxaline]",block of neurotoxic side effects of NMDA antagonist drugs such as MK-801,[4],can also block the neurotoxic side effects of NMDA antagonist drugs such as MK-801
Cc1cc2c(s1)Nc1ccccc1N=C2N1CCN(C)CC1 [Olanzapine],ED50,PC/RS cortical neurons,1.4 mg/kg
C[C@@H]1CN(CCCn2c3ccccc3c3ccccc32)C[C@H](C)N1 [Rimcazole],ED50,PC/RS cortical neurons,17.8 mg/kg
same,receptor selectivity,sigma receptors,substantial affinity only for sigma receptors
CSc1ccc2c(c1)N(CCC1CCCCN1C)c1ccccc1S2 (centres unmarked) [Thioridazine],ED50,PC/RS cortical neurons,55.3 mg/kg
same,receptor selectivity,sigma receptors,interact with both dopamine receptors and sigma receptors
CCNC1(c2cccs2)CCCCC1=O (centres unmarked) [Tiletamine],pathomorphological changes in brain,"cerebral cortex; adult rat, literature",cause pathomorphological changes in the cerebral cortex of adult rats
Cc1cccc(C)c1N=C1NCCCS1 [Xylazine],"cytopathology in retina incubated in NMDA plus MK-801, without or with α2 agonist",chick embryo retina,no cytopathology
same,affinity/selectivity for α2 over α1 receptors,α2 receptors,activate α2 receptors with higher affinity than they have for α1 receptors
same,ED50,[2]; 4 h,2.4 mg/kg
same,relative potency in preventing the neurotoxic reaction,[2],the least potent
C[C@](N)(Cc1ccc(O)c(O)c1)C(=O)O [alpha-methyldopa],affinity/selectivity for α2 over α1 receptors,α2 receptors,activate α2 receptors with higher affinity than they have for α1 receptors
CC(N)C(O)c1ccc(O)c(O)c1 (stereo not drawn) [alpha-methylnoradrenaline],affinity/selectivity for α2 over α1 receptors,α2 receptors,activate α2 receptors with higher affinity than they have for α1 receptors
CCN1CCc2nc(N)oc2CC1 [azepexole],affinity/selectivity for α2 over α1 receptors,α2 receptors,"activate α2 receptors with higher affinity than they have for α1 receptors; also recorded: substantially more selectivity for α2 receptors than for α1 receptors, when compared to clonidine; also recorded: substantially higher selectivity for α2 receptors (and substantially lower affinity for α1 receptors) than clonidine"
CN1[C@@H]2CC[C@H]1C[C@@H](OC(c1ccccc1)c1ccccc1)C2 [benztropine],block of neurotoxic side effects caused by NMDA antagonists,[5],can block the neurotoxic side effects caused by NMDA antagonists
OC(CCN1CCCCC1)(c1ccccc1)C1CC2C=CC1C2 (centres unmarked) [biperiden],block of neurotoxic side effects caused by NMDA antagonists,[5],can block the neurotoxic side effects caused by NMDA antagonists
Cc1cccc([C@H](C)c2cnc[nH]2)c1C [dexmedetomidine],affinity/selectivity for α2 over α1 receptors,α2 receptors,"activate α2 receptors with higher affinity than they have for α1 receptors; also recorded: substantially more selectivity for α2 receptors than for α1 receptors, when compared to clonidine; also recorded: substantially higher selectivity for α2 receptors (and substantially lower affinity for α1 receptors) than clonidine"
N=C(N)NC(=O)Cc1c(Cl)cccc1Cl [guanfacine],affinity/selectivity for α2 over α1 receptors,α2 receptors,activate α2 receptors with higher affinity than they have for α1 receptors; also recorded: substantially higher selectivity for α2 receptors (and substantially lower affinity for α1 receptors) than clonidine
same,hypotensive side effects,[6],substantially lower activity in reducing blood pressure than clonidine
CC(Oc1c(Cl)cccc1Cl)C1=NCCN1 (centres unmarked) [lofexidine],reduction of withdrawal symptoms,[1],help reduce withdrawal symptoms in some recovering addicts
same,affinity/selectivity for α2 over α1 receptors,α2 receptors,activate α2 receptors with higher affinity than they have for α1 receptors
same,hypotensive side effects,[6],substantially lower hypotensive side effects than clonidine; also recorded: substantially lower activity in reducing blood pressure than clonidine
same,hypotensive side effects,[6]; listed as Lofexidine,reduced hypotensive side effects compared to clonidine
Cc1cccc(C(C)c2cnc[nH]2)c1C (centres unmarked) [medetomidine],affinity/selectivity for α2 over α1 receptors,α2 receptors,activate α2 receptors with higher affinity than they have for α1 receptors
Clc1cc(I)cc(Cl)c1NC1=NCCN1 [p-Iodoclonidine],affinity/selectivity for α2 over α1 receptors,α2 receptors,activate α2 receptors with higher affinity than they have for α1 receptors
same,ED50,[2]; 4 h,1.3 mg/kg
same,relative potency in preventing the neurotoxic reaction,[2],intermediate
OC(CCN1CCCC1)(c1ccccc1)C1CCCCC1 (centres unmarked) [procyclidine],block of neurotoxic side effects caused by NMDA antagonists,[5],can block the neurotoxic side effects caused by NMDA antagonists
COC(=O)[C@H]1[C@H]2C[C@H]3c4[nH]c5ccccc5c4CCN3C[C@H]2CC[C@@H]1O [rauwolscine],shift of clonidine blocking curve,[7],A similar shifting of the curve to the right
C1COC(NC(C2CC2)C2CC2)=N1 [rilmenidine],affinity/selectivity for α2 over α1 receptors,α2 receptors,activate α2 receptors with higher affinity than they have for α1 receptors
C=CCC1(C(C)CCC)C(=O)NC(=O)NC1=O (centres unmarked) [secobarbitol],block of neurotoxic side effects caused by NMDA antagonists,[5],can block the neurotoxic side effects caused by NMDA antagonists
Clc1ccc2nsnc2c1NC1=NCCN1 [tizanidine],affinity/selectivity for α2 over α1 receptors,α2 receptors,activate α2 receptors with higher affinity than they have for α1 receptors
OC(CCN1CCCCC1)(c1ccccc1)C1CCCCC1 (centres unmarked) [trihexyphenidyl],block of neurotoxic side effects caused by NMDA antagonists,[5],can block the neurotoxic side effects caused by NMDA antagonists
COC(=O)[C@@H]1[C@H]2C[C@H]3c4[nH]c5ccccc5c4CCN3C[C@@H]2CC[C@@H]1O [yohimbine],shift of clonidine blocking curve,[7],A similar shifting of the curve to the right
same,effect on xylazine's protection,"[7]; yohimbine 1 mg/kg ip with various doses of xylazine, MK-801-treated rats, F(1,42)=9.40, p=0.004",significantly interfered with xylazine's protection
same,shift of xylazine blocking curve,"[7]; yohimbine 1 mg/kg ip, MK-801-treated rats, FIG. 2",shifted the blocking curve to the right
